Test results taken from patent US20100267749A1, “TRISUBSTITUTED FUROPYRIMIDINES AND USE THEREOF” (BAYER SCHERING PHARMA AKTIENGESELLSCHAFT, priority 2007, published 2010).

Molecular target: T1, Prostacyclin Receptors (IP Receptors) of Human Thrombocyte Membranes (Homo sapiens, UniProt P43119)
T1 construct: Thrombocyte membranes are obtained by centrifuging 50 ml of human blood; tissue Maco Pharma, Langen (buffy coats); host or cells: human thrombocyte (platelet) membranes from human blood
Assay: Binding to prostacyclin receptors (IP receptors) of human thrombocyte membranes, 3H-Iloprost displacement
Conditions: 3 nM 3H-Iloprost, 60 min, room temperature
Experimental: B-1. Studies of Binding to Prostacyclin Receptors (IP Receptors) of Human Thrombocyte Membranes
Thrombocyte membranes are obtained by centrifuging 50 ml of human blood (Buffy coats with CDP Stabilizer, from Maco Pharma, Langen) for 20 min at 160×g. Remove the supernatant (platelet-rich plasma, PRP) and then centrifuge again at 2000×g for 10 min at room temperature. Resuspend the sediment in 50 mM tris(hydroxymethyl)amino-methane, which has been adjusted to a pH of 7.4 with 1 N hydrochloric acid, and store at −20° C. overnight. On the next day, centrifuge the suspension at 80 000×g and 4° C. for 30 min. Discard the supernatant. Resuspend the sediment in 50 mM tris(hydroxy-methyl)aminomethane/hydrochloric acid, 0.25 mM ethylene diamine tetraacetic acid (EDTA), pH 7.4, and then centrifuge once again at 80 000×g and 4° C. for 30 min. Take up the membrane sediment in binding buffer (50 mM tris(hydroxymethyl)-aminomethane/hydrochloric acid, 5 mM magnesium chloride, pH 7.4) and store at −70° C. until the binding test.
For the binding test, incubate 3 nM ^3H-Iloprost (592 GBq/mmol, from AmershamBioscience) for 60 min with 300-1000 μg/ml of human thrombocyte membranes per charge (max. 0.2 ml) in the presence of the test substances at room temperature. After stopping, add cold binding buffer to the membranes and wash with 0.1% bovine serum albumin. After adding Ultima Gold Scintillator, quantify the radioactivity bound to the membranes using a scintillation counter. The nonspecific binding is defined as radioactivity in the presence of 1 μM Iloprost (from Cayman Chemical, Ann Arbor) and is as a rule <25% of the bound total radioactivity. The binding data (IC50 values) are determined using the program GraphPad Prism Version 3.02.

T1 sequence (P43119 whole entry): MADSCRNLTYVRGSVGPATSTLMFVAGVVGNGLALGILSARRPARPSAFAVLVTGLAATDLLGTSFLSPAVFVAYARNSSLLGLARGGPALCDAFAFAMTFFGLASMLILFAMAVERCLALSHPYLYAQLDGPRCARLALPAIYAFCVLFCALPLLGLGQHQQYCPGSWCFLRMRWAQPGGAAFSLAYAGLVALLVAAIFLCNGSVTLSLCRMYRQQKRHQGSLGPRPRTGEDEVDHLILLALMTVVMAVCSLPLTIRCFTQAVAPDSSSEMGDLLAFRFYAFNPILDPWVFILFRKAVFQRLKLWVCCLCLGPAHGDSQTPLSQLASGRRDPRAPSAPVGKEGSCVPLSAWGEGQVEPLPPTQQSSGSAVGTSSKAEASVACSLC

Row | IC50 | SMILES
1 | 545 nM | C=CCOC(=O)/C=C/c1c(-c2ccccc2)oc2ncnc(O[C@H](C)CCCCC(=O)O)c12 [Example 15]
2 | 13 nM | CCOC(=O)/C(C)=C/c1c(-c2ccccc2)oc2ncnc(O[C@H](C)CCCCC(=O)O)c12 [Example 16, (6R)-6-({5-[(1E)-3-ethoxy-2-methyl-3-oxoprop-1-en-1-yl]-6-phenylfuro[2,3-d]pyrimidin-4-yl}oxy)heptanoic acid]
3 | 1050 nM | CCCC(=O)/C=C/c1c(-c2ccccc2)oc2ncnc(O[C@H](C)CCCCC(=O)O)c12 [Example 17]
4 | 132 nM | CCCNC(=O)/C(C)=C/c1c(-c2ccccc2)oc2ncnc(O[C@H](C)CCCCC(=O)O)c12 [Example 21, (6R)-6-({5-[(1E)-2-methyl-3-oxo-3-(propylamino)prop-1-en-1-yl]-6-phenylfuro[2,3-d]pyrimidin-4-yl}oxy)heptanoic acid]
